Reference: patent US10301271B2, “Crystalline forms of tyrosine kinase inhibitors and their salts” (PURDUE PHARMA L.P., priority 2014, dated 2019)

Tests used:
[1] = system: mechanical allodynia in CCI rats; assay: Chronic constriction injury (CCI) model of neuropathic pain; type: in vivo, rat; conditions: for side effects observed in dosed CCI-rats (drowsiness, motor incoordination, other abnormality): single oral dose (gabapentin 100 mg/kg)
From the text: The CCI model is one of the most commonly used mono-neuropathic pain model firstly described in details by Bennett and Xie (Bennett G J, Xie Y K. Pain. 1988; 33(1):87-107). It mimics important clinical chronic pain symptoms such as mechanical allodynia and thermal hyperalgesia. Chronic constriction injury of the sciatic nerve was produced by tying four loose ligatures around the left sciatic nerve according to the method of Bennett and Xie. […] Calibrated von Frey filaments were used to determine the lowest mechanical (tactile) threshold required to evoke a brisk paw withdrawal reflex in the rat hindpaws. Rats were allowed to acclimatize in wire mesh cages for 15-20 min prior to von Frey testing. Assessment of paw withdrawal thresholds (PWTs) using von Frey filaments was undertaken prior to CCI-surgery (pre-surgery baseline on day 0). Before the drug dosing on day 14, the pre-dose baseline was recorded for each rat. […] Drug-naïve CCI-rats (n=4-6 per group) were used. The oral (PO) gavage vehicle was either 10% (w/v) Povidone K25 in water for PO dosing, or 18% (w/v) CrosPovidone in water for PO dosing, or 0.5% CMC-Na/0.1% Tween 80 in distilled water for PO dosing. The positive control gabapentin was dissolved in the vehicle and orally given at 100 mg/kg (by oral gavage). Test article was dissolved or suspended in the vehicle and orally given at 25, 50, 100 and 150 mg/kg. Each CCI-rat was administered a single oral dose of test article, gabapentin or vehicle control, 2 hours before assessment of PWT.

[2] = Rat pharmacokinetics (plasma and brain, LC-MS/MS); type: in vivo; conditions: PO, 100 mg/kg, mean
Experimental: Compound I was dosed to nonfasted male CD IGS rats (weighting 180-250 g, Charles River Laboratories) by single intravenous (IV, n=3/group) or oral gavage (PO, n=4/group, including control rat group for drug-free blood and brain collection) administration at a nominal dose levels of 3 mg/kg (IV) or 5 mg/kg (IV) and 10, 50, 100 mg/kg (PO) respectively. Compound was formulated in either DMSO/Solutol: HS 15/phosphate buffered saline, pH 7.4 (PBS) for both IV and PO dosing, or 10% (w/v) Povidone K12 in water for IV dosing or 10% (w/v) Povidone K25 in water for PO dosing, or 18% (w/v) CrosPovidone in water for PO dosing. An intravenous profile was obtained by taking serial or terminal blood samples at 3, 10, 30, 60, 120, 240, 360, 1440 min post dose. An oral profile was obtained by taking serial or terminal blood samples at 10, 30, 60, 120, 240, 360, 480, 1440 min post dose.
Plasma Sample Collection from Rats. Animals were sedated under general inhalant anesthesia (3% isoflurane) for blood collection by cardiac puncture. […]
Plasma and brain samples were subjected to quantitative analysis by LC-MS/MS using compound-specific mass transitions. […] The concentrations of the test compound in brain (ng/g brain tissue) and in plasma (ng/mL) as well as the ratio of the brain concentration and the plasma concentration at each time point were determined and reported.

TrkA (human full length) = target: T1, TrkA (human full length) (Homo sapiens, UniProt P04629); assay: PathHunter live whole cell functional assay, NGF stimulated TrkA activation; type: cell-based; conditions: U2OS cell background, mean of triplicate; read-out: cellular IC50, inhibition of NGF stimulated TrkA activation
T1 construct: expressed recombinantly on the intracellular C-terminus of TrkA (human full length); host or cells: U2OS
T1 sequence (P04629 33-796): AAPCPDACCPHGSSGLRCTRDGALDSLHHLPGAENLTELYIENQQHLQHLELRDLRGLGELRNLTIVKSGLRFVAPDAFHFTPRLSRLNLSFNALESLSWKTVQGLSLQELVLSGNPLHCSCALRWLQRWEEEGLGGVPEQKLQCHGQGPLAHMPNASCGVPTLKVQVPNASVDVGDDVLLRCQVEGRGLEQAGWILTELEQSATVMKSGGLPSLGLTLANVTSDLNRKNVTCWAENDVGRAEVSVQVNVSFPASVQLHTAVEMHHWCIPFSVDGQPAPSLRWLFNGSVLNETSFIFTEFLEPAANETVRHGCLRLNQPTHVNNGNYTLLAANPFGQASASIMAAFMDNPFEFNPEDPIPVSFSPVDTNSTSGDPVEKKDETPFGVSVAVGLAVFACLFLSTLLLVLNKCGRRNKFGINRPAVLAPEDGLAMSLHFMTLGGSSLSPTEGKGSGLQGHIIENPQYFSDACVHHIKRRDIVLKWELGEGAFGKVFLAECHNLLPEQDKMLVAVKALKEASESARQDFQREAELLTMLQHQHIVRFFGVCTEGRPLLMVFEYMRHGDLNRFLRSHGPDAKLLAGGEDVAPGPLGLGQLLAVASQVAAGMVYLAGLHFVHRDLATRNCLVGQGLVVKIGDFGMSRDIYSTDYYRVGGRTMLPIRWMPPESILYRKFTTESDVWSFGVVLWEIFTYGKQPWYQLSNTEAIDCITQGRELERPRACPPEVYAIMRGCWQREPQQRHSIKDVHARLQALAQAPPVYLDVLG
From the text: There are several methods to measure whole length TrkA activation stimulated by its natural ligand or agonist NGF in live cells. For example, the PathHunter Profiling services offered by DiscoveRx (Fremont, Calif.). The PathHunter technology is an adaptation of enzyme fragment complementation that provides a novel, generic functional cell-based assay format for detecting protein-protein interactions. In this cell-based assay approach, with U2OS cell background, a small peptide epitope (PK) is expressed recombinantly on the intracellular C-terminus of TrkA (human full length). This is co-expressed with a larger sequence, termed enzyme acceptor (EA) that is attached to a cytoplasmic protein SHC1 which will interact with TrkA intracellularly. NGF induced activation of TrkA receptor causes either homo- or hetero-dimerization of TrkA resulting in cross-phosphorylation. The SHC1-EA fusion protein then binds the phosphorylated TrkA receptor forcing complementation of the PK and EA fragment. This interaction generates an active beta-galactosidase enzyme, which is detected using a chemiluminescent substrate.

TrkB = TrkB (Homo sapiens, UniProt Q16620); assay: PathHunter live whole cell functional assay, BDNF stimulated TrkB activation; type: cell-based; conditions: triplicate
TrkB, sequence (Q16620 32-822): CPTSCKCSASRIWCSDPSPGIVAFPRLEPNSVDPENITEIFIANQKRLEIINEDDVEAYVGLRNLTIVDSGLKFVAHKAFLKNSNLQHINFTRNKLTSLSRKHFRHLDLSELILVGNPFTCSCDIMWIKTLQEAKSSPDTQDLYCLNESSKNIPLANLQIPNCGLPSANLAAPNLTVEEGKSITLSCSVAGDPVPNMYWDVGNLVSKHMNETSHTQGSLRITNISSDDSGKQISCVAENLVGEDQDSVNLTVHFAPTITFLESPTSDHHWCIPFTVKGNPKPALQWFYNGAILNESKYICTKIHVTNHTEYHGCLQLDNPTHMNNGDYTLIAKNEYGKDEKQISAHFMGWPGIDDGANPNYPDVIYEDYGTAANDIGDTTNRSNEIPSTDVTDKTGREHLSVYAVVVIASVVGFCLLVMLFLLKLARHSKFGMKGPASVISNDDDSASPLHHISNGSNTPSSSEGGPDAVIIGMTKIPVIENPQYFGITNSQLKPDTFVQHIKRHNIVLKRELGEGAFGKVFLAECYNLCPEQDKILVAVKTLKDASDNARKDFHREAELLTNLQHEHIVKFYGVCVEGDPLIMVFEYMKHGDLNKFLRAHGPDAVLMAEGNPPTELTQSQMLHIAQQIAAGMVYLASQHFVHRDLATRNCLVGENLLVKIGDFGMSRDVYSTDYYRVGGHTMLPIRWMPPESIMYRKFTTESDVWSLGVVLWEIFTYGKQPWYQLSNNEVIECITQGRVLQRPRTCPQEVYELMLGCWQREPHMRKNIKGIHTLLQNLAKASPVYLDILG

TrkC = TrkC (Homo sapiens, UniProt Q16288); assay: PathHunter live whole cell functional assay, NT3 stimulated TrkC activation; type: cell-based; conditions: triplicate
TrkC, sequence (Q16288 32-839): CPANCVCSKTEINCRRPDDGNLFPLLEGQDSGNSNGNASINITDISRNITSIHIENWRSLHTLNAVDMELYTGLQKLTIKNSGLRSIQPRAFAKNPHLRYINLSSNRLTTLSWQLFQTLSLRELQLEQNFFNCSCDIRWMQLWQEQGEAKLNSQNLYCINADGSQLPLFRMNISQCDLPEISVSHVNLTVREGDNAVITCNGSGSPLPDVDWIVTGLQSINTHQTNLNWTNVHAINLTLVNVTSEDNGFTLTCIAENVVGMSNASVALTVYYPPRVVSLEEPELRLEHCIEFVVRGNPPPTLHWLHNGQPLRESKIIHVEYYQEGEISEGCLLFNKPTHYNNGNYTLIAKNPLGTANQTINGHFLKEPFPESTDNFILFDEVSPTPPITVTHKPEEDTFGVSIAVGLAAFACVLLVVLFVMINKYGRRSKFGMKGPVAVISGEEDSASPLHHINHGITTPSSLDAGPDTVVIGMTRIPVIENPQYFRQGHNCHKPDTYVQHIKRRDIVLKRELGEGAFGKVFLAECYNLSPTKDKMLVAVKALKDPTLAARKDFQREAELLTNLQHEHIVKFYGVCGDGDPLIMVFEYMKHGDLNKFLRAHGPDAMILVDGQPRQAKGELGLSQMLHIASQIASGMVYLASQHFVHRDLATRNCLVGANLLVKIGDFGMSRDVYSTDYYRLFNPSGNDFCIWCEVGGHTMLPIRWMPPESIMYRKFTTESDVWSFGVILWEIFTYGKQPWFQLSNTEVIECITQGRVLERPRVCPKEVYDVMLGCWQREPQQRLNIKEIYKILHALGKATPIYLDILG

[3] = system: human pancreatic cancer cells AsPC-1, MIA PaCa-2, BxPC-3, Capan-1 and Panc-1; assay: Cell viability and proliferation assay (CellTiter-Glo), pancreatic cancer cells; type: cell-based; conditions: 24 h or 48 h or 96 h incubation
Experimental: (§1) To assess the chemosensitivity of tumor cells, cell viability is measured by CellTiter-Glo® Luminescent Cell Viability Assay (Promega; WI, USA) per the manufacturer's instruction. Briefly, […] to 7×10^5 cells/ml are cultured in sterile 96-well plates in the presence of increasing concentrations of the drugs (test article, 0 to 100 μM), or vehicle in RPMI medium. The plates are then incubated for 24 to 96 h, and then 100 μl of CellTiter-Glo reagent is added to lyse the cells. After a 10-min incubation at room temperature, the luminescence is recorded in a luminometer with an integration time of 1 s per well. The luminescence signals for the drug-treated cells are normalized by the luminescence signal obtained from vehicle-treated cells. As an alternative method to quantitate cell viability, the trypan blue exclusion dye method was used. Vehicle- or drug-treated cells were assayed by adding trypan blue solution (0.4% in phosphate-buffered saline [PBS]) to the culture medium. After 3 min, the number of dead cells that retained the dye is compared to the total number of cells to calculate cell viability. GraphPad Prism 5 software is used to calculate IC50 and plot effect-dose curve of drugs. Multiplate reader: EnVision 2104 (PerkinElmer). % of control variability=100*[(X(drug_treated)−L(baseline))/(H(vehicle_control)−L(baseline))]. […]

[4] = system: human liver cancer cells SK-HEP-1 and HepG2; assay: Cell viability and proliferation assay (CellTiter-Glo), liver cancer cells; type: cell-based; conditions: 24 h or 48 h or 96 h incubation
Experimental: as §1

[5] = system: human stomach cancer cells NCI-N87; assay: Cell viability and proliferation assay (CellTiter-Glo), stomach cancer cells; type: cell-based; conditions: 24 h or 48 h or 96 h incubation
Experimental: as §1

[6] = system: CFA-induced inflammatory pain; assay: Rat CFA-induced inflammatory pain model; type: in vivo; conditions: 50 μL of 1 mM s.c. into the paw 3 hours after CFA
Experimental: Hyperalgesia was induced by subcutaneously injecting 50 μL of CFA (Sigma-Aldrich, St. Louis, Mo., USA) into the plantar surface of the left hind paw of the rats using a 30-gauge hypodermic needle under sevoflurane anesthesia. The classical signs of inflammation, including edema and redness, for up the last day of tests were recorded. To assess the effect of test article on CFA-induced inflammatory pain, the rats were anesthetized with sevoflurane 3 hours after CFA injection and then injected 50 μL of either 1 mM test article (n=6) or Saline (n=4) subcutaneously (S.C.) into the same site as the CFA injection, using a 30-gauge hypodermic needle under sevoflurane anesthesia, according to published method (Ueda K., et al, J Pharmacol. Sci., 2010; 112(4):438-43). Paw withdrawal latencies (thermal hyperalgesia) are measured before and at […] 2, 4, and 7 days after CFA injection. Mechanical thresholds were also measured in the same way with either Formula 1 compound (n=6) or Saline (n=4) at similar different time points (for example, 1, 3 hour and 3 days). The noxious heat and mechanical thresholds were separately measured in each group of rats. The threshold was measured 3-5 times in each rat and then averaged. Stimulus interval was 5 min.

[7] = system: mechanical allodynia in SNL rats; assay: Spinal nerve ligation (SNL) mono-neuropathic pain model; type: in vivo, rat; conditions: oral administration, dose-dependent
Experimental: The surgical procedure will be performed according to the method firstly described by Kim and Chung (Kim S H, Chung J M. Pain. 1992; 50(3):355-63.). This procedure will result in tactile allodynia in the left hindpaw. […] The dose-response anti-allodynia effects of test compound: on day 14 after surgery, rats were treated with test article at one of four doses, vehicle or positive control by oral gavage, and PWT was determined by calibrated von Frey filaments at time points of 0 (right before the drug dosing, Pre-Dose Baseline), 0.5, 1, 2, 4 and 6 hr. The anti-allodynia effects of repeated administration of test article: Administration of test article was started on day 7 after surgery, once a day for 7 days. PWT was determined by calibrated von Frey filaments, 2 hour after test article dosing each day. After 7 days dosing, the measurement were continued, every other day without compound dosing for another 7 days. PWT was determined at the time points as given above.

[8] = system: human pancreatic cancer cells (PANC-1); assay: Subcutaneous xenograft tumor mouse model; type: in vivo; conditions: oral 150 mg/kg, Day 7 postdose, p<0.02
[9] = Accelerated stability tests by XRPD and Raman; type: physicochemical; conditions: over 1 week
Experimental: Approximately 2 mg of sample was gently compressed on the XRPD zero back ground single obliquely cut silica sample holder. The sample was then loaded into a D/MAX 2200 X-ray powder diffractometer (Rigaku) or a Philips X-Pert MPD diffractometer and analyzed using the following experimental conditions (Tube anode: Cu; Generator tension: 40 kV; Tube current: 40 mA; Wavelength alpha1: 1.54056 Å; Wavelength alpha2: 1.5444 Å; Start angle [2 theta]: 5; End angle [2 theta]: 50; and Continuous scan). For suspected novel forms a slightly slower scan speed was used over a range of […].
Samples were analyzed by a Nicolet Almega XR Dispersive Raman Microscope for its Raman spectrum using the following conditions (Exposure Time: 1.0 s; Acquisition No: 10; Pinhole Size: […]; Wavelength range: 2000˜300 cm^−1 (single grating); Laser: He—Ne 780 nm 100% power, Objective: 20×/0.40 or 50×/0.75 (magnifier/numerical aperture number)). Then the measured Raman spectra were corrected by baseline subtraction using the software OMNIC™ v7.3.

[10] = Solubility of the free acid; type: physicochemical

Compound | side effects observed in dosed CCI-rats (drowsiness, motor incoordination, other abnormality) [1] | F [2] [%] | IC50 (TrkA (human full length)) [µM] | IC50 (TrkB) [µM] | IC50 (TrkC) [µM] | IC50 [3] [µM] | IC50 [4] [µM] | IC50 [5] [µM] | analgesic effect (thermal and mechanical thresholds, FIG. 1) [6] | reduction of mechanical allodynia (paw withdrawal threshold, von Frey, FIG. 2) ([1]; single oral dose 25, 50, 100 and 150 mg/kg, 2 hours before assessment, dose-dependent) | reduction of mechanical allodynia (paw withdrawal threshold, von Frey) [7] | tumor volume reduction compared to vehicle treated group [8] | solid-state stability by XRPD and Raman ([9]; 40° C./75% RH) | solid-state stability by XRPD and Raman ([9]; 80° C.) | solubility [10]
NCC1(CC(=O)O)CCCCC1 [gabapentin, reference compound] | drowsiness or motor incoordination |  |  |  |  |  |  |  |  |  |  |  |  |  | 
O=C([O-])c1ccc(Nc2cc(N3CCN(C4CCCCC4)CC3)c3noc4c3c2C(=O)c2ccccc2-4)cc1.[Na+] [Compound I, Sodium 4-((3-(4-cyclohexylpiperazin-1-yl)-6-oxo-6H-anthra[1,9-cd]isoxazol-5-yl)amino)benzoate] | no such effect or other abnormality was observed | ~100 | ~0.05 | > 10 | > 10 | 2 to 5 | 2 to 8 | ~7 | efficacious in relieving the pain | significantly reduced mechanical allodynia | significantly reduced mechanical allodynia | more than 21% | no instability | no instability | 
O=C(O)c1ccc(Nc2cc(N3CCN(C4CCCCC4)CC3)c3noc4c3c2C(=O)c2ccccc2-4)cc1 [Compound 701, 4-((3-(4-cyclohexylpiperazin-1-yl)-6-oxo-6H-anthra[1,9-cd]isoxazol-5-yl)amino)benzoic acid] |  |  |  |  |  |  |  |  |  |  |  |  |  |  | limited solubility
